Experimental data reported in US20220047720A1, “CONJUGATES AND NANOPARTICLES OF HYALURONIC ACID AND EPIGALLOCATECHIN-3-O-GALLATE AND USES THEREOF” (Agency for Science, Technology and Research, priority 2018, published 2022).
Structures can show the parent of a compound that is named as a salt.

How the values were obtained:
[1] = test system: NB4 cells; experiment: Quantitative evaluation of differentiation in AML cells (CD11b, CD14, CD15 by flow cytometry); type: cell-based, human; settings: three days, ATRA, PMA (100 ng/mL), A3D8 (0.6 μg/mL), EGCG (38 μM), HA equivalent
Description: AML cells were seeded at 1×10^5 cells in 1 mL per well in 24-well plates and were incubated for 2 h with 5% CO2 at 37° C. […] ATRA (1 mM), PMA (100 ng/mL) and A3D8 (0.6 μg/mL) were included as positive controls. After three days of incubation, the cells were harvested and examined for signs of differentiation by assessing cell surface antigen expression. To label the cell surface antigens, the cells were suspended in PBS (pH 7.4) containing 0.2% (v/v) BSA and then incubated at 4° C. for 30 min with mouse anti-human FITC-conjugated CD11b, Cy7-conjugated CD14 and Cy5-conjugated CD15 antibodies (2 μg/mL each). Mouse IgG1 isotype antibody was used as control. After that, the cells were washed three times with PBS containing 0.2% (v/v) BSA and the level of antibody binding was determined by flow cytometry using a fluorescence-activated cell sorter BD LSR II (BD Biosciences, Calif.). Each measurement comprised of acquisition of at least 1×10^4 cells and the analyses were considered as informative when adequate numbers of events (>100) were collected in the enumeration gates. To quantify the percentage of antigen-expressing cells, the cells were defined to be positive for the antigens if they fell within the gating region pre-set to include <2% of untreated control cells.

[2] = test system: patient-derived AML cells named Leu 14; experiment: Patient-derived AML xenograft mouse model; type: in vivo
Description: All animal experiments were performed according to the protocols approved by IACUC at the Biological Resource Centre, Singapore. A pre-clinical patient-derived liquid xenograft mouse model was established based on a previous report (Z. Her, et al., J. Hematol. Oncol. 2017, 10, 162). Briefly, NOD-scid II2rg^−/− (NSG) newborn pups were sub-lethally irradiated at 1 Gy and engrafted with patient-derived AML cells named Leu 14. When the proportion of human CD45^+ cells in peripheral blood reached around 10-15%, the mice were randomly divided into 3 groups. The first group received intravenous injections of isotonic dextrose solution containing Sora-NP-1 at a sorafenib dose of 0.4 mg kg^−1 twice weekly for 4 weeks. For comparison, another group of mice received intravenous injections of free sorafenib solution prepared in saline-DMSO mixture (95:5, v/v) at an equivalent dose. […] At selected time points, the proportion of human CD45^+ cells in the peripheral blood, spleen and bone marrow was examined by flow cytometry analysis using a LSR II flow cytometer (BD Biosciences).

[3] = test system: MV-4-11 cells; experiment: In vitro anti-leukemic activity, CellTiter-Glo assay, and median-effect combination index; type: cell-based; settings: 3 days
Description: (§3) MOLM-14 and MV-4-11 cells (ATCC, USA) were maintained in RPMI 1640 media supplemented with 10% (v/v) fetal bovine serum (FBS) and 1% (v/v) penicillin/streptomycin. The cells seeded on white-walled 96-well plates (1×10^4 cells per well) were incubated in 100 μL of 10% FBS-supplemented media containing either sunitinib- or sorafenib-loaded nanoparticles and the respective free drugs at various concentrations. […] After treatment for 3 days, 100 μL of the CellTiter-Glo assay reagent was added to each well of the plates. After incubation for 10 min at 25° C., cellular luminescence was measured using a Tecan Infinite 200 microplate reader (Tecan Group, Switzerland). Results were expressed as percentages of the luminescence signal of analysed cells relative to untreated controls.

[4] = test system: MOLM-14 cells; experiment: as above; settings: 3 days
Description: as §3

[5] = Dispersion stability in water (appearance); type: physicochemical; settings: suspended in water at the same sorafenib concentration
Source text: Based on the drug loading capacity and particle size, three compositions were selected for in vitro anti-leukemic activity studies (in Example 3) and were named as Sora-NP-1 to Sora-NP-3 (Table 2). Among them, Sora-NP-1 had the smallest particle size with the lowest sorafenib loading capacity. […] This provides indirect evidence that sorafenib molecules were stably encapsulated in the interior of Sora-NP. The excellent dispersion stability of Sora-NP compositions would be beneficial for their clinical applications.

[6] = test system: HUVEC cells; experiment: In vitro cell viability assay (CellTiter-Glo), normal cells; type: cell-based, human; settings: 72 h
Description: (§1) The human AML cell line HL60, human embryonic kidney cell line HEK293 and primary human umbilical vein endothelial (HUVEC) cells were purchased from the American Type Culture Collection (ATCC). The human AML cell lines NB4 was kindly donated by the Cancer Science Institute, Singapore. All the AML cells were cultured in RPMI 1640 medium supplemented with 10% fetal bovine serum (FBS) and maintained in density of 2×10^5 to 1×10^6 cells/mL. HEK293 cells were cultured in DMEM medium supplemented with 10% FBS while HUVEC cells were maintained in EBM™-2 Endothelial Cell Growth Basal Medium supplemented with endothelial cell growth medium SingleQuots™ supplements and growth factors. All the cells were maintained in a humid incubator with 5% CO2 at 37° C.
(§2) All cells (HL60, NB4, HEK293 and HUVEC cells) were seeded at 1×10^4 cells per […] per well in 96-well plates. […] After drug treatment, the cell viability was evaluated using the CellTiter-Glo™ Luminescent Cell Viability Assay Kit (Promega, Madison, Wis.) following the manufacturer's instructions. The luminescence from each well was measured using a Tecan Infinite microplate reader (Tecan Group, Switzerland). The final cell viability values were expressed as percentages derived from the luminescence intensity from the treated cells relative to untreated cells. […]

[7] = test system: HEK293 cells; experiment: as above; type: cell-based, human; settings: 72 h
Description: as §1, §2

[8] = equivalent sorafenib concentrations
[9] = equivalent sunitinib concentrations

## CC1=C(/C=C/C(C)=C/C=C/C(C)=C/C(=O)O)C(C)(C)CCC1 [ATRA, all-trans retinoic acid]
[1]
  differentiation marker expression: greatest increase in the three antigen expression levels and the proportion of antigen-expressing cells

## CNC(=O)c1cc(Oc2ccc(NC(=O)Nc3ccc(Cl)c(C(F)(F)F)c3)cc2)ccn1 [free sorafenib, Sorafenib tosylate]
[2]; i.v., sorafenib dose 0.4 mg kg^−1 twice weekly for 4 weeks, versus untreated control
  AML cell proliferation in the peripheral blood (human CD45+ cells): only a slight delay of AML progression
[2]; sorafenib dose 0.4 mg kg^−1
  time at which treated mice started to die: 12 to 14 days
[3]; [8]
  order of effectiveness (anti-leukemic activity): Sora-NP-1>Sora-NP-2>Sora-NP-3>free sorafenib
[4]; 200 nM sorafenib
  cells eradicated / reduction of the cell viability: ~14%
[4]; [8]
  order of effectiveness (anti-leukemic activity): Sora-NP-1>Sora-NP-2>Sora-NP-3>free sorafenib
[5]
  Appearance of dispersion in water: heavily flocculated and eventually precipitated

## CCN(CC)CCNC(=O)c1c(C)[nH]c(/C=C2\C(=O)Nc3ccc(F)cc32)c1C [free sunitinib, Sunitinib malate]
[3]; [9]
  order of effectiveness (anti-leukemic activity): Suni-NP-1>Suni-NP-2>free sunitinib>Suni-NP-3>Suni-NP-4
[4]; [9]
  order of effectiveness (anti-leukemic activity): Suni-NP-1>Suni-NP-2>free sunitinib>Suni-NP-3>Suni-NP-4

## Epigallocatechin-3-gallate [EGCG]
[6]
  EGCG equivalent concentration range with greater toxicity than HA-EGCG (B): 15 to 76 µM
[7]
  EGCG equivalent concentration with greater toxicity than HA-EGCG (B): 76 µM
